Experimental findings from article PMC10557740 (bioRxiv, 2023) are described below.

For assay [1], the target named is HTR2A-A242S-EGFP-CT (humanized 5-hydroxytryptamine 2A receptor) (Mus musculus, UniProt P35363, A242S). The assay is described as follows: radioligand saturation binding on cortical crude membranes.
The target in assay [2] is 5-hydroxytryptamine 2A receptor (HTR2A) (Mus musculus, UniProt P35363). Format: binding.
Chain of 5-hydroxytryptamine 2A receptor (HTR2A) (P35363 whole entry): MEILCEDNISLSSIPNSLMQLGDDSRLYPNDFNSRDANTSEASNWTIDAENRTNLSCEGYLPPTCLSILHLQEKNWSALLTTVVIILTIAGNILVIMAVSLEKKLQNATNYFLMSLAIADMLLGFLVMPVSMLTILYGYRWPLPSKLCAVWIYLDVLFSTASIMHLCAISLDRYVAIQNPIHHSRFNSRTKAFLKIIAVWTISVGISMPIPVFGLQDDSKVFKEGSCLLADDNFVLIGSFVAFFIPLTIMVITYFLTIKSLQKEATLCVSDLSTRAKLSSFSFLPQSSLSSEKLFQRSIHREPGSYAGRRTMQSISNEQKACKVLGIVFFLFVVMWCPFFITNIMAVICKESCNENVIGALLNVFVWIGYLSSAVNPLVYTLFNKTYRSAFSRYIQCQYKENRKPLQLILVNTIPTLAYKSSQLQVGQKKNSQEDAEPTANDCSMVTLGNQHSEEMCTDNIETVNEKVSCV

Chain of HTR2A-A242S-EGFP-CT (humanized 5-hydroxytryptamine 2A receptor) (P35363 1-452 A242S, other chains not shown): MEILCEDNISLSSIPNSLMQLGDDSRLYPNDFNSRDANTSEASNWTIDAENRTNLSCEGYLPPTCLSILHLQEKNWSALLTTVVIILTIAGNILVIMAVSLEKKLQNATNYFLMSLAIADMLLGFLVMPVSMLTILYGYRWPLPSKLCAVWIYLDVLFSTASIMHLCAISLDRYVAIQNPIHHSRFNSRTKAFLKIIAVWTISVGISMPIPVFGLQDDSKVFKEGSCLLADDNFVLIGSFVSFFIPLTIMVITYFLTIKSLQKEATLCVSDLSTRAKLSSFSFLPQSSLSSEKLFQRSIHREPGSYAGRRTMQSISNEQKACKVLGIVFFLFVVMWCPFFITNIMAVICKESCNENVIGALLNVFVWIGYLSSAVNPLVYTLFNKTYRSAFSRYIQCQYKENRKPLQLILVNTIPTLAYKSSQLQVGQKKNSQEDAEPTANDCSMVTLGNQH

What is called Kd is a measure of binding affinity in units of concentration. Higher therefore signals a looser complex. `O=C(c1ccc(F)cc1)C1CCN(CCn2c(=O)[nH]c3ccccc3c2=O)CC1` [[3H]-ketanserin]: the Kd in assay [1] is 2.38 ± 1.48 nM; in assay [2], 1.09 ± 0.324 nM.
